Columns and labels:
IP L1210/Cisplatin [1] = experiment: Activity against IP-implanted L1210/Cisplatin leukemia resistant to cisplatin, 60 day test (Table 4); format: in vivo, Female CD2Fl mice
Method: (§1) Biological properties of the compounds of the present invention were determined following the protocol described in Cancer Chemotherapy Reports, Vol. 3, No. 3, 1972 which report is incorporated herein by reference.
Other known mechanisms of resistance for other classes of agents, such as gene amplification or target enzyme change or amplication, also need to be explored. The experiments summarized in Table 3 were conducted at the same time against both sublines using the same drug preparations. […] These experiments were repeated in a second laboratory as documented in Table 4. However, in these experiments the animals were held for 60 rather than 30 days to evaluate whether or not long-term survivors are produced after drug treatment in a more challenging setting. […]
(§2) These experiments (23-00081 3LE31 and 23-00003 3DP3l) were conducted concurrently at the Mason Research Institute, Worcester, MA under the supervision of Dr. William Cobb. See Table 4 for experimental details. The diluent control animals bearing L1210 leukemia lived a median of 8.3 days and gained 1.6 grams by Day 5. […] Female CD2Fl mice were used for these experiments.

IP L1210 = experiment: Activity against IP-implanted L1210 leukemia sensitive to cisplatin, 60 day test (Table 4); format: in vivo, Female CD2Fl mice
Method: as §1
(§3) Other known mechanisms of resistance for other classes of agents, such as gene amplification or target enzyme change or amplication, also need to be explored. The experiments summarized in Table 3 were conducted at the same time against both sublines using the same drug preparations. […] These experiments were repeated in a second laboratory as documented in Table 4. However, in these experiments the animals were held for 60 rather than 30 days to evaluate whether or not long-term survivors are produced after drug treatment in a more challenging setting.
(§4) This experiment (A8-00005 3LE31) was conducted at the Southern Research Institute, Birmingham, Ala. under the supervision of Dr. Daniel Griswold. The protocols were the same as those published previously (Geran et al., Cancer Chemotherapy Reports 3: No. 2, 1972 [Attachment 11]). 10^5 cells were implanted intraperitoneally in CD2Fl male mice on Day 0. Drug treatments were given intraperitoneally as single injections at the doses indicated on Days 1, 5 and 9 after tumor implantation. The diluent was saline except for NSC-271674 where 5% sodium bicarbonate was used. All drugs were prepared fresh on the day of injection, and all were administered in solution. Median survival times for both control and drug-treated mice were determined and expressed as a percentage (% T/C). Body weights were determined on Day 5 and expressed as a weight difference (body weight of the drug-treated animals minus that of the control animals in grams) (T-C). The diluent control animals lived a median of 8.4 days and gained 1.9 grams by Day 5 in this experiment. All animals, including Day 30 survivors, were used in the calculation of median survival times. The log10 change in tumor burden refers to the net log change in viable tumor cell population at the end of therapy (Rx) as compared to the start of therapy; e.g., a […] means that there was a […] and a 3 log change means there was a 1000-fold increase in tumor burden at the end of therapy. The tumor burden at the start of therapy was about 6.1×10^5 cells in this experiment.
as §2

[2] = test system: IP-Implanted L1210 Leukemia; experiment: Dose-response against IP-implanted L1210 leukemia, IP treatment Days 1, 5 and 9, 30-day test (Table 2); format: in vivo, CD2Fl male mice
Method: as §1, §4

IP L1210/Cisplatin [3] = experiment: Activity against IP-implanted L1210/Cisplatin leukemia resistant to cisplatin, 30 day test (Table 3); format: in vivo, Female CD2Fl mice
Method: as §1, §3
This experiment (A8-00005 3LE31) was conducted at the Southern Research Institute, Birmingham, Ala. under the supervision of Dr. Daniel Griswold. The protocols were the same as those published previously (Geran et al., Cancer Chemotherapy Reports 3: No. 2, 1972 [Attachment 11]). 10^5 cells were implanted intraperitoneally in CD2Fl male mice on Day 0. Drug treatments were given intraperitoneally as single injections at the doses indicated on Days 1, 5 and 9 after tumor implantation. The diluent was saline except for NSC-271674 where 5% sodium bicarbonate was used. All drugs were prepared fresh on the day of injection, and all were administered in solution. Median survival times for both control and drug-treated mice were determined and expressed as a percentage (% T/C). Body weights were determined on Day 5 and expressed as a weight difference (body weight of the drug-treated animals minus that of the control animals in grams) (T-C). The diluent control animals lived a median of 8.4 days and gained 1.9 grams by Day 5 in this experiment. All animals, including Day 30 survivors, were used in the calculation of median survival times. The log10 change in tumor burden refers to the net log change in viable tumor cell population at the end of therapy (Rx) as compared to the start of therapy; e.g., a […] means that there was a […] and a 3 log change means there was a 1000-fold increase in tumor burden at the end of therapy. The tumor burden at the start of therapy was about 6.1×10^5 cells in this experiment. […]

[Cl][Pt]1([Cl])([Cl])([Cl])[NH]C2CCCCC2[NH]1 (stereo not drawn) [trans (d, l), (d,l)-Tetrachloro-trans-1,2-cyclohexanediamine platinum (IV)]
60 Day Survivors/Total (IP L1210/Cisplatin [1]; 1 mg/kg/dose): 0/10 | Body Weight Difference (IP L1210/Cisplatin [1]; 1 mg/kg/dose): -0.6 Grams | Median % T/C (IP L1210/Cisplatin [1]; 1 mg/kg/dose): 129% | 60 Day Survivors/Total (IP L1210/Cisplatin [1]; 2 mg/kg/dose): 1/10 | Body Weight Difference (IP L1210/Cisplatin [1]; 2 mg/kg/dose): -0.8 Grams | Median % T/C (IP L1210/Cisplatin [1]; 2 mg/kg/dose): 139% | 60 Day Survivors/Total (IP L1210/Cisplatin [1]; 4 mg/kg/dose): 4/10 | Body Weight Difference (IP L1210/Cisplatin [1]; 4 mg/kg/dose): -1.2 Grams | Median % T/C (IP L1210/Cisplatin [1]; 4 mg/kg/dose): 451% | 60 Day Survivors/Total (IP L1210/Cisplatin [1]; 8 mg/kg/dose): 0/10 | Body Weight Difference (IP L1210/Cisplatin [1]; 8 mg/kg/dose): -4.0 Grams | Median % T/C (IP L1210/Cisplatin [1]; 8 mg/kg/dose): 236% | 60 Day Survivors/Total (IP L1210/Cisplatin [1]; 16 mg/kg/dose): 0/10 | Body Weight Difference (IP L1210/Cisplatin [1]; 16 mg/kg/dose): -6.3 Grams | Median % T/C (IP L1210/Cisplatin [1]; 16 mg/kg/dose): Toxic | 60 Day Survivors/Total (IP L1210; 1 mg/kg/dose): 0/10 | Body Weight Difference (IP L1210; 1 mg/kg/dose): -0.8 Grams | Median % T/C (IP L1210; 1 mg/kg/dose): 144% | 60 Day Survivors/Total (IP L1210; 2 mg/kg/dose): 0/10 | Body Weight Difference (IP L1210; 2 mg/kg/dose): -1.2 Grams | Median % T/C (IP L1210; 2 mg/kg/dose): 180% | 60 Day Survivors/Total (IP L1210; 4 mg/kg/dose): 0/10 | Body Weight Difference (IP L1210; 4 mg/kg/dose): -1.5 Grams | Median % T/C (IP L1210; 4 mg/kg/dose): 274% | 60 Day Survivors/Total (IP L1210; 8 mg/kg/dose): 3/10 | Body Weight Difference (IP L1210; 8 mg/kg/dose): -3.2 Grams | Median % T/C (IP L1210; 8 mg/kg/dose): 178% | 60 Day Survivors/Total (IP L1210; 16 mg/kg/dose): 0/10 | Body Weight Difference (IP L1210; 16 mg/kg/dose): -5.9 Grams | Median % T/C (IP L1210; 16 mg/kg/dose): 89% | 30-Day Survivors/Total ([2]; 1 mg/kg/dose IP): 0/6 | Approx. Log10 Change in Tumor Burden at End of Rx ([2]; 1 mg/kg/dose IP): ~2.9 log10 | Body Weight Difference ([2]; 1 mg/kg/dose IP): -0.5 Grams | Median % T/C ([2]; 1 mg/kg/dose IP): 122% | 30-Day Survivors/Total ([2]; 2 mg/kg/dose IP): 0/6 | Approx. Log10 Change in Tumor Burden at End of Rx ([2]; 2 mg/kg/dose IP): ~2.5 log10 | Body Weight Difference ([2]; 2 mg/kg/dose IP): -1.5 Grams | Median % T/C ([2]; 2 mg/kg/dose IP): 146% | 30-Day Survivors/Total ([2]; 4 mg/kg/dose IP): 1/6 | Approx. Log10 Change in Tumor Burden at End of Rx ([2]; 4 mg/kg/dose IP): ~-0.5 log10 | Body Weight Difference ([2]; 4 mg/kg/dose IP): -1.5 Grams | Median % T/C ([2]; 4 mg/kg/dose IP): 202% | 30-Day Survivors/Total ([2]; 8 mg/kg/dose IP): 4/6 | Approx. Log10 Change in Tumor Burden at End of Rx ([2]; 8 mg/kg/dose IP): ~-5.7 log10 | Body Weight Difference ([2]; 8 mg/kg/dose IP): -1.2 Grams | Median % T/C ([2]; 8 mg/kg/dose IP): 357% | Body Weight Difference ([2]; 8 mg/kg/dose IP, listed as trans dl): less than -4 Grams | 30-Day Survivors/Total ([2]; 16 mg/kg/dose IP): 1/6 | Approx. Log10 Change in Tumor Burden at End of Rx ([2]; 16 mg/kg/dose IP): ~2.6 log10 | Body Weight Difference ([2]; 16 mg/kg/dose IP): -4.6 Grams | Median % T/C ([2]; 16 mg/kg/dose IP): 142% | Optimal dose (dose producing best therapeutic response) ([2]; day 1, 5 and 9 schedule): 8 mg/kg/injection | 30 Day Survivors/Total (IP L1210/Cisplatin [3]; 1 mg/kg/dose): 0/6 | Approx. Log10 Change in Tumor Burden at End of RX (IP L1210/Cisplatin [3]; 1 mg/kg/dose): ~2.8 log10 | Median % T/C (IP L1210/Cisplatin [3]; 1 mg/kg/dose): 115% | 30 Day Survivors/Total (IP L1210/Cisplatin [3]; 2 mg/kg/dose): 0/6 | Approx. Log10 Change in Tumor Burden at End of RX (IP L1210/Cisplatin [3]; 2 mg/kg/dose): ~2.8 log10 | Median % T/C (IP L1210/Cisplatin [3]; 2 mg/kg/dose): 118% | 30 Day Survivors/Total (IP L1210/Cisplatin [3]; 4 mg/kg/dose): 2/6 | Approx. Log10 Change in Tumor Burden at End of RX (IP L1210/Cisplatin [3]; 4 mg/kg/dose): ~-3.4 log10 | Median % T/C (IP L1210/Cisplatin [3]; 4 mg/kg/dose): 225% | 30 Day Survivors/Total (IP L1210/Cisplatin [3]; 8 mg/kg/dose): 4/6 | Approx. Log10 Change in Tumor Burden at End of RX (IP L1210/Cisplatin [3]; 8 mg/kg/dose): ~-5.9 log10 | Median % T/C (IP L1210/Cisplatin [3]; 8 mg/kg/dose): 322% | 30 Day Survivors/Total (IP L1210/Cisplatin [3]; 16 mg/kg/dose): 1/6 | Median % T/C (IP L1210/Cisplatin [3]; 16 mg/kg/dose): 110%

Source: US4599352A, “Antineoplastic platinum (IV) complexes and compositions” (priority 1984, dated 1986)
